Results: PubChem BioAssay (NCI)
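Cultured in 96-well plates, cells were exposed to test compound for 48 hours across five concentrations. GI50: concentration for 50% inhibition of growth. TGI is the concentration that stops growth completely.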

How the values were obtained:
Experiment in all cases: DTP human tumour cell line panel, 48 h; in the data active = GI50 below about 0.43 µM; inactive = the rest
[1] = tested on: OVCAR-5 ovarian
[2] = tested on: NCI-H226 lung
[3] = tested on: NCI-H23 lung
[4] = tested on: OVCAR-4 ovarian
[5] = tested on: HOP-62 NSCLC
[6] = tested on: SK-OV-3 ovarian
[7] = tested on: CCRF-CEM leukemia
[8] = tested on: COLO 205 colon
[9] = tested on: NCI-H522 lung
[10] = tested on: HCC-2998 colon
[11] = tested on: MDA-MB-231 breast
[12] = tested on: U251 CNS
[13] = tested on: UACC-62 melanoma
[14] = tested on: SK-MEL-2 melanoma
[15] = tested on: M14 melanoma
[16] = tested on: HT29 colon
[17] = tested on: SF-268 CNS
[18] = tested on: SNB-19 CNS
[19] = tested on: NCI/ADR-RES ovarian
[20] = tested on: UO-31 renal
[21] = tested on: MALME-3M melanoma
[22] = tested on: TK-10 renal
[23] = tested on: MDA-MB-435
[24] = tested on: 786-0 renal
[25] = tested on: A549 NSCLC
[26] = tested on: HL-60(TB) leukemia
[27] = tested on: HS 578T breast
[28] = tested on: UACC-257 melanoma
[29] = tested on: HCT-15 colon
[30] = tested on: SW-620 colon
[31] = tested on: DU-145 prostate
[32] = tested on: SK-MEL-28 melanoma
[33] = tested on: SR leukemia
[34] = tested on: K-562 leukemia
[35] = tested on: PC-3 prostate
[36] = tested on: HOP-92 NSCLC
[37] = tested on: NCI-H460 lung
[38] = tested on: RPMI-8226 leukemia
[39] = tested on: A498 renal
[40] = tested on: OVCAR-8 ovarian
[41] = tested on: OVCAR-3 ovarian
[42] = tested on: CAKI-1 renal
[43] = tested on: MCF7 breast
[44] = tested on: BT-549 breast
[45] = tested on: IGROV1 ovarian
[46] = tested on: LOX IMVI melanoma
[47] = tested on: ACHN renal
[48] = tested on: RXF 393 renal
[49] = tested on: SN12C renal
[50] = tested on: KM12 colon
[51] = tested on: SK-MEL-5 melanoma
[52] = tested on: HCT-116 colon
[53] = tested on: SF-539 CNS
[54] = tested on: MOLT-4 leukemia
[55] = tested on: T-47D breast
[56] = tested on: EKVX NSCLC
[57] = tested on: SF-295 CNS
[58] = tested on: SNB-75 CNS

CCCCCCc1nc2nc(Cl)c(Cl)nc2[nH]1
> 100 µM: TGI [1] | TGI [2] | TGI [3] | TGI [4] | TGI [5] | TGI [6] | TGI [7] | TGI [8] | TGI [10] | TGI [11] | TGI [12] | TGI [13] | TGI [14] | TGI [15] | TGI [16] | TGI [17] | TGI [18] | TGI [19] | TGI [20] | TGI [21] | TGI [22] | TGI [23] | TGI [24] | TGI [25] | TGI [26] | TGI [27] | TGI [28] | TGI [29] | TGI [30] | TGI [31] | TGI [32] | TGI [33] | TGI [34] | TGI [35] | TGI [37] | TGI [38] | TGI [39] | TGI [40] | TGI [41] | TGI [42] | TGI [43] | TGI [44] | TGI [45] | TGI [46] | TGI [47] | TGI [48] | TGI [49] | TGI [50] | TGI [51] | TGI [52] | TGI [53] | TGI [54] | TGI [55]
26.8 µM: TGI [9]
inactive: GI50 [1] > 100 µM | GI50 [2] 7.21 µM | GI50 [3] 3.68 µM | GI50 [4] 6.33 µM | GI50 [5] > 100 µM | GI50 [6] > 100 µM | GI50 [7] 5.8 µM | GI50 [8] 8.04 µM | GI50 [9] 2.73 µM | GI50 [10] > 100 µM | GI50 [11] 35.9 µM | GI50 [12] 6.44 µM | GI50 [13] 3.2 µM | GI50 [14] 5.58 µM | GI50 [15] > 100 µM | GI50 [16] > 100 µM | GI50 [17] > 100 µM | GI50 [18] 6.2 µM | GI50 [19] 6.92 µM | GI50 [20] 4.88 µM | GI50 [21] 4.63 µM | GI50 [22] 9.9 µM | GI50 [23] 8.68 µM | GI50 [24] > 100 µM | GI50 [25] 4.34 µM | GI50 [26] 6.84 µM | GI50 [27] > 100 µM | GI50 [28] 3.02 µM | GI50 [29] 5.06 µM | GI50 [30] > 100 µM | GI50 [31] 83.2 µM | GI50 [32] > 100 µM | GI50 [33] 8.98 µM | GI50 [34] 5.29 µM | GI50 [35] 4.68 µM | GI50 [36] 1.99 µM | GI50 [37] 5.59 µM | GI50 [38] 2.66 µM | GI50 [39] 3.81 µM | GI50 [40] > 100 µM | GI50 [41] 4.01 µM | GI50 [42] 6.37 µM | GI50 [43] 4.08 µM | GI50 [44] 22.5 µM | GI50 [45] 18.9 µM | GI50 [46] 6.24 µM | GI50 [47] 6.94 µM | GI50 [48] 7.55 µM | GI50 [49] 4.26 µM | GI50 [50] 6.88 µM | GI50 [51] 2.61 µM | GI50 [52] 6.83 µM | GI50 [53] > 100 µM | GI50 [54] 5.21 µM | GI50 [55] 2.68 µM
7.4 µM: TGI [36]

C[C@H](CCCNCCCNCCCN)[C@H]1CC[C@H]2[C@@H]3[C@H](OCCCN)C[C@H]4C[C@H](OCCCN)CC[C@]4(C)[C@H]3C[C@H](OCCCN)[C@]12C
5.1 µM: TGI [44]
16.1 µM: TGI [17]
1.14 µM: TGI [23]
> 76.7 µM: TGI [2]
27.7 µM: TGI [47]
> 31.5 µM: TGI [5]
21.3 µM: TGI [31]
15.3 µM: TGI [8]
> 43.9 µM: TGI [56]
10.2 µM: TGI [52]
> 58.2 µM: TGI [20]
1.54 µM: TGI [38]
11.9 µM: TGI [36]
12.5 µM: TGI [27]
58.6 µM: TGI [9]
5.02 µM: TGI [10]
59.5 µM: TGI [28]
> 62.5 µM: TGI [41]
13.8 µM: TGI [16]
51.6 µM: TGI [22]
69.3 µM: TGI [19]
18.8 µM: TGI [11]
> 55.8 µM: TGI [40]
active: GI50 [23] 0.34 µM | GI50 [33] 0.326 µM | GI50 [38] 0.418 µM | GI50 [45] 0.421 µM | GI50 [50] 0.355 µM
5.49 µM: TGI [24]
1.66 µM: TGI [33]
3.29 µM: TGI [51]
4.13 µM: TGI [32]
19.7 µM: TGI [12]
inactive: GI50 [1] 17.5 µM | GI50 [3] 1.48 µM | GI50 [4] > 45.2 µM | GI50 [5] 1.44 µM | GI50 [6] 35.7 µM | GI50 [7] 3.82 µM | GI50 [8] 1.1 µM | GI50 [9] 11.1 µM | GI50 [10] 0.653 µM | GI50 [11] 0.652 µM | GI50 [12] 2.65 µM | GI50 [13] 0.871 µM | GI50 [14] 47.5 µM | GI50 [15] 0.874 µM | GI50 [16] 0.821 µM | GI50 [17] 1.54 µM | GI50 [18] 1.92 µM | GI50 [19] 4.75 µM | GI50 [20] 0.913 µM | GI50 [21] 4.27 µM | GI50 [22] 2.18 µM | GI50 [24] 0.824 µM | GI50 [25] 2.08 µM | GI50 [27] 0.918 µM | GI50 [28] 9.63 µM | GI50 [29] 3.14 µM | GI50 [30] 0.98 µM | GI50 [31] 3.34 µM | GI50 [32] 0.573 µM | GI50 [34] 0.458 µM | GI50 [35] 18.3 µM | GI50 [36] 0.584 µM | GI50 [37] 4.72 µM | GI50 [56] 5.43 µM | GI50 [39] > 100 µM | GI50 [40] 2.27 µM | GI50 [41] 14.6 µM | GI50 [42] 16 µM | GI50 [43] 6.46 µM | GI50 [44] 0.923 µM | GI50 [46] 0.888 µM | GI50 [47] 1.41 µM | GI50 [48] 6.29 µM | GI50 [49] 1.61 µM | GI50 [57] 1.33 µM | GI50 [51] 0.626 µM | GI50 [52] 0.482 µM | GI50 [53] 0.98 µM | GI50 [58] 8.49 µM | GI50 [54] 1.09 µM | GI50 [55] 2.59 µM
8.86 µM: TGI [45]
8.12 µM: TGI [54]
23.9 µM: TGI [57]
46.9 µM: TGI [48]
18.3 µM: TGI [25]
3.6 µM: TGI [34]
13.3 µM: TGI [13]
8.2 µM: TGI [30]
9.41 µM: TGI [46]
> 83.4 µM: TGI [18]
24.2 µM: TGI [49]
6.05 µM: TGI [50]
31.1 µM: TGI [7]
> 37 µM: TGI [55]
> 34.7 µM: TGI [37]
3.46 µM: TGI [53]
> 100 µM: TGI [1] | TGI [4] | TGI [6] | TGI [14] | TGI [29] | TGI [35] | TGI [39] | TGI [42]
26 µM: TGI [21]
3.88 µM: TGI [15]
> 26.4 µM: TGI [43]
10.8 µM: TGI [3]
> 83.9 µM: TGI [58]
